Reference: patent publication US12568972B2, “Pyridazinol compounds and derivatives, preparation methods, herbicidal compositions and applications thereof” (Qingdao Kingagroot Chemical Compound Co., Ltd., priority 2018, dated 2026)

Experiments:
Assay in all cases: Post-emergence test, weed control effect
Type in all cases: in vivo
Conditions in all cases: after 3 weeks
Rorippa indica = test system: Rorippa indica
In short: (§1)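 Activity is expressed as a level from 0 (no effect) to 10 (plant dead), each step matching a further 10% fresh-weight inhibition, assessed 3 weeks post-treatment. Treatment: spray at 2-3 leaf stage of pot-grown plants, compound in acetone, Tween-80 and water with 80% vegetable oil methyl ester synergist at 1500 g/ha.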

Veronica polita = test system: Veronica polita
In short: as §1

Amaranthus retroflexus = test system: Amaranthus retroflexus
In short: as §1

Chenopodiaceae = test system: Chenopodiaceae
In short: as §1

O=S(=O)(Cc1ccccc1)Oc1cc(C(F)(F)F)nnc1-c1ccc(F)cc1 [Compound 1-143]
10: weed control effect, Rorippa indica (activity level) (Rorippa indica; Dose 3000 g/ha) | weed control effect, Veronica polita (activity level) (Veronica polita; Dose 3000 g/ha) | weed control effect, Amaranthus retroflexus (activity level) (Amaranthus retroflexus; Dose 3000 g/ha) | weed control effect, Chenopodiaceae (activity level) (Chenopodiaceae; Dose 3000 g/ha)

Oc1cc(CF)nnc1-c1cccnc1F [Compound 1076]
10: weed control effect (activity level), Rorippa indica (Rorippa indica; Dose 3000 g/ha) | weed control effect (activity level), Veronica polita (Veronica polita; Dose 3000 g/ha) | weed control effect (activity level), Amaranthus retroflexus (Amaranthus retroflexus; Dose 3000 g/ha) | weed control effect (activity level), Chenopodiaceae (Chenopodiaceae; Dose 3000 g/ha)

COc1cc(-c2nnc(C(F)(F)F)cc2O)n(C)n1 [Compound 782]
10: weed control effect (activity level), Rorippa indica (Rorippa indica; Dose 3000 g/ha) | weed control effect (activity level), Veronica polita (Veronica polita; Dose 3000 g/ha) | weed control effect (activity level), Amaranthus retroflexus (Amaranthus retroflexus; Dose 3000 g/ha) | weed control effect (activity level), Chenopodiaceae (Chenopodiaceae; Dose 3000 g/ha)

Cc1cc(-c2nnc(C(F)(F)F)cc2O)cnc1F [Compound 219]
10: weed control effect (activity level), Rorippa indica (Rorippa indica; dose 2000 g/ha) | weed control effect (activity level), Veronica polita (Veronica polita; dose 2000 g/ha) | weed control effect (activity level), Amaranthus retroflexus (Amaranthus retroflexus; dose 2000 g/ha) | weed control effect (activity level), Chenopodiaceae (Chenopodiaceae; dose 2000 g/ha)

Oc1cc(C(F)(F)F)nnc1-c1ccc(I)cc1 [Compound 33]
10: weed control effect (activity level), Rorippa indica (Rorippa indica; dose 1000 g/ha) | weed control effect (activity level), Veronica polita (Veronica polita; dose 1000 g/ha) | weed control effect (activity level), Amaranthus retroflexus (Amaranthus retroflexus; dose 1000 g/ha) | weed control effect (activity level), Chenopodiaceae (Chenopodiaceae; dose 1000 g/ha)

Cn1nc(C(F)F)cc1-c1nnc(C(F)(F)F)cc1O [Compound 794]
10: weed control effect (activity level), Rorippa indica (Rorippa indica; Dose 3000 g/ha) | weed control effect (activity level), Veronica polita (Veronica polita; Dose 3000 g/ha) | weed control effect (activity level), Amaranthus retroflexus (Amaranthus retroflexus; Dose 3000 g/ha) | weed control effect (activity level), Chenopodiaceae (Chenopodiaceae; Dose 3000 g/ha)

O=C(Oc1cc(C(F)(F)F)nnc1-c1ccc(C(F)(F)F)cc1)c1cccc(OC(F)(F)F)c1 [Compound 1-88]
10: weed control effect, Rorippa indica (activity level) (Rorippa indica; Dose 3000 g/ha) | weed control effect, Veronica polita (activity level) (Veronica polita; Dose 3000 g/ha) | weed control effect, Amaranthus retroflexus (activity level) (Amaranthus retroflexus; Dose 3000 g/ha) | weed control effect, Chenopodiaceae (activity level) (Chenopodiaceae; Dose 3000 g/ha)

Oc1cc(C(F)(F)F)nnc1-c1cc2ccccc2o1 [Compound 613]
10: weed control effect (activity level), Rorippa indica (Rorippa indica; Dose 3000 g/ha) | weed control effect (activity level), Veronica polita (Veronica polita; Dose 3000 g/ha) | weed control effect (activity level), Amaranthus retroflexus (Amaranthus retroflexus; Dose 3000 g/ha) | weed control effect (activity level), Chenopodiaceae (Chenopodiaceae; Dose 3000 g/ha)

Oc1cc(C(F)(F)F)nnc1-c1cccc2ccccc12 [Compound 380]
10: weed control effect (activity level), Rorippa indica (Rorippa indica; dose 2000 g/ha) | weed control effect (activity level), Veronica polita (Veronica polita; dose 2000 g/ha) | weed control effect (activity level), Amaranthus retroflexus (Amaranthus retroflexus; dose 2000 g/ha) | weed control effect (activity level), Chenopodiaceae (Chenopodiaceae; dose 2000 g/ha)

O=C(CC1CCCC1)Oc1cc(C(F)(F)F)nnc1-c1ccc(C(F)(F)F)cc1 [Compound 1-18]
10: weed control effect, Rorippa indica (activity level) (Rorippa indica; Dose 3000 g/ha) | weed control effect, Veronica polita (activity level) (Veronica polita; Dose 3000 g/ha) | weed control effect, Amaranthus retroflexus (activity level) (Amaranthus retroflexus; Dose 3000 g/ha) | weed control effect, Chenopodiaceae (activity level) (Chenopodiaceae; Dose 3000 g/ha)

CC(C)COC(=S)Oc1cc(C(F)(F)F)nnc1-c1ccc(Cl)cc1Cl [Compound 1-158]
10: weed control effect, Rorippa indica (activity level) (Rorippa indica; Dose 3000 g/ha) | weed control effect, Veronica polita (activity level) (Veronica polita; Dose 3000 g/ha) | weed control effect, Amaranthus retroflexus (activity level) (Amaranthus retroflexus; Dose 3000 g/ha) | weed control effect, Chenopodiaceae (activity level) (Chenopodiaceae; Dose 3000 g/ha)

CC(C)OC(=O)Nc1ccc(-c2nnc(C(F)(F)F)cc2O)cn1 [Compound 323]
10: weed control effect (activity level), Rorippa indica (Rorippa indica; dose 2000 g/ha) | weed control effect (activity level), Veronica polita (Veronica polita; dose 2000 g/ha) | weed control effect (activity level), Amaranthus retroflexus (Amaranthus retroflexus; dose 2000 g/ha) | weed control effect (activity level), Chenopodiaceae (Chenopodiaceae; dose 2000 g/ha)

C/C(=N/Oc1cc(C(F)(F)F)nnc1-c1ccc(C)c(C)c1)C(C)(C)C [Compound 1-174]
10: weed control effect, Rorippa indica (activity level) (Rorippa indica; Dose 3000 g/ha) | weed control effect, Veronica polita (activity level) (Veronica polita; Dose 3000 g/ha) | weed control effect, Amaranthus retroflexus (activity level) (Amaranthus retroflexus; Dose 3000 g/ha) | weed control effect, Chenopodiaceae (activity level) (Chenopodiaceae; Dose 3000 g/ha)

Oc1cc(C(F)(F)F)nnc1-c1cc(F)c(F)c(F)c1 [Compound 53]
10: weed control effect (activity level), Rorippa indica (Rorippa indica; dose 1000 g/ha) | weed control effect (activity level), Veronica polita (Veronica polita; dose 1000 g/ha) | weed control effect (activity level), Amaranthus retroflexus (Amaranthus retroflexus; dose 1000 g/ha) | weed control effect (activity level), Chenopodiaceae (Chenopodiaceae; dose 1000 g/ha)

Oc1cc(C(F)(F)F)nnc1-c1ccc(C(F)(F)F)cc1 [Compound 746]
10: weed control effect (activity level), Rorippa indica (Rorippa indica; Dose 3000 g/ha) | weed control effect (activity level), Veronica polita (Veronica polita; Dose 3000 g/ha) | weed control effect (activity level), Amaranthus retroflexus (Amaranthus retroflexus; Dose 3000 g/ha) | weed control effect (activity level), Chenopodiaceae (Chenopodiaceae; Dose 3000 g/ha)

Oc1cc(C(F)(F)F)nnc1-c1cc(Cl)c(-c2ccccc2)c(Cl)c1 [Compound 168]
10: weed control effect (activity level), Rorippa indica (Rorippa indica; dose 2000 g/ha) | weed control effect (activity level), Veronica polita (Veronica polita; dose 2000 g/ha) | weed control effect (activity level), Amaranthus retroflexus (Amaranthus retroflexus; dose 2000 g/ha) | weed control effect (activity level), Chenopodiaceae (Chenopodiaceae; dose 2000 g/ha)

Oc1cc(C(F)(F)F)nnc1-c1cncc(I)c1 [Compound 971]
10: weed control effect (activity level), Rorippa indica (Rorippa indica; Dose 3000 g/ha) | weed control effect (activity level), Veronica polita (Veronica polita; Dose 3000 g/ha) | weed control effect (activity level), Amaranthus retroflexus (Amaranthus retroflexus; Dose 3000 g/ha) | weed control effect (activity level), Chenopodiaceae (Chenopodiaceae; Dose 3000 g/ha)

CCc1cccc(-c2nnc(C(F)(F)F)cc2OS(=O)(=O)c2nc3ccccc3[nH]2)c1 [Compound 1-153]
10: weed control effect, Rorippa indica (activity level) (Rorippa indica; Dose 3000 g/ha) | weed control effect, Veronica polita (activity level) (Veronica polita; Dose 3000 g/ha) | weed control effect, Amaranthus retroflexus (activity level) (Amaranthus retroflexus; Dose 3000 g/ha) | weed control effect, Chenopodiaceae (activity level) (Chenopodiaceae; Dose 3000 g/ha)

O=C(Oc1cc(C(F)(F)F)nnc1-c1ccc(F)c(F)c1)c1ccc2[nH]ccc2c1 [Compound 1-115]
10: weed control effect, Rorippa indica (activity level) (Rorippa indica; Dose 3000 g/ha) | weed control effect, Veronica polita (activity level) (Veronica polita; Dose 3000 g/ha) | weed control effect, Amaranthus retroflexus (activity level) (Amaranthus retroflexus; Dose 3000 g/ha) | weed control effect, Chenopodiaceae (activity level) (Chenopodiaceae; Dose 3000 g/ha)

CCn1nc(C2CC2)cc1-c1nnc(C(F)(F)F)cc1O [Compound 827]
10: weed control effect (activity level), Rorippa indica (Rorippa indica; Dose 3000 g/ha) | weed control effect (activity level), Veronica polita (Veronica polita; Dose 3000 g/ha) | weed control effect (activity level), Amaranthus retroflexus (Amaranthus retroflexus; Dose 3000 g/ha) | weed control effect (activity level), Chenopodiaceae (Chenopodiaceae; Dose 3000 g/ha)

O=C(Oc1cc(C(F)(F)F)nnc1-c1ccc(F)cc1)c1ccc(Cl)cc1Cl [Compound 1-91]
10: weed control effect, Rorippa indica (activity level) (Rorippa indica; Dose 3000 g/ha) | weed control effect, Veronica polita (activity level) (Veronica polita; Dose 3000 g/ha) | weed control effect, Amaranthus retroflexus (activity level) (Amaranthus retroflexus; Dose 3000 g/ha) | weed control effect, Chenopodiaceae (activity level) (Chenopodiaceae; Dose 3000 g/ha)

O=S(=O)(Oc1cc(C(F)(F)F)nnc1-c1ccc(F)c(F)c1)c1ccc(Cl)cc1 [Compound 1-130]
10: weed control effect, Rorippa indica (activity level) (Rorippa indica; Dose 3000 g/ha) | weed control effect, Veronica polita (activity level) (Veronica polita; Dose 3000 g/ha) | weed control effect, Amaranthus retroflexus (activity level) (Amaranthus retroflexus; Dose 3000 g/ha) | weed control effect, Chenopodiaceae (activity level) (Chenopodiaceae; Dose 3000 g/ha)
